According to patent publication US11208400B2, “Substituted 6-(1H-pyrazol-1-yl)pyrimidin-4-amine derivatives and uses thereof” (Bayer Aktiengesellschaft, priority 2016, dated 2021):

target: T1, human Npt2a (Homo sapiens, UniProt Q06495); assay: Npt2a activity cell based assay, membrane potential dye, CHO T-REx hNpt2a cells; conditions: doxycycline-induced, depolarization by sodium phosphate influx, average or median values if tested more than once
T1 construct: expressed in transfected cells
T1 sequence (Q06495 1-639): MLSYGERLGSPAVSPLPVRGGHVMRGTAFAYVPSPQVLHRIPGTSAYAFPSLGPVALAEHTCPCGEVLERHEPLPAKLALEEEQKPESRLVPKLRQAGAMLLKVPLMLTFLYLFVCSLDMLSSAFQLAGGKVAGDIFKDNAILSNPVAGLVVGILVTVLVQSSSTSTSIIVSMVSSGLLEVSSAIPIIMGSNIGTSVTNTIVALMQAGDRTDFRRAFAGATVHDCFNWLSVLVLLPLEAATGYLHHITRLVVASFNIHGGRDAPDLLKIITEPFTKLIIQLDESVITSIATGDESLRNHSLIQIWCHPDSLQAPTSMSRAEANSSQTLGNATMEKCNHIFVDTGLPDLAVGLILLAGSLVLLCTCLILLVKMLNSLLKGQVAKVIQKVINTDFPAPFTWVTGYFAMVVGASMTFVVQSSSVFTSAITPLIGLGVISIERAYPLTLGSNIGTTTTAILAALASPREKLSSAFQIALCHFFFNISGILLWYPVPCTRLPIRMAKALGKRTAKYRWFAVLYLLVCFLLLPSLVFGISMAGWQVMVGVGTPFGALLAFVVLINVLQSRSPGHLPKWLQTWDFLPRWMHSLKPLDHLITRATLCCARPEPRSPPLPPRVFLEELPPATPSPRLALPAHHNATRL
Protocol: For measuring Npt2a activity in a cell based assay, a stable CHO cell line with inducible Npt2a expression was generated. Therefore, CHO T-Rex cells (life technologies cat. R718-07) were stably transfected with doxycycline-inducible human NPT2a (pcDNA5TO-hNpt2a). The obtained CHO T-REx hNpt2a cells were routinely cultured in Dulbecco's MEM/F12 (4.5 g/l Glucose, Gibco cat. 21331-020; 500 mL) supplemented with 10 ml Glutamax 100×, Sodium pyruvate (7 mL of 100 mM solution), HEPES (10 mL of 1 M solution), Sodium bicarbonate (10 mL of 7.5% solution), 10% Fetal Bovine Serum Tetracycline free (Clontech cat. 631106, 500 ml), Penicillin-Streptomycin (5 mL of 100× Solution), Blasticidin 10 μg/mL and 400 μg/mL Hygromycin.
Activity of Npt2a was detected by following depolarization of cellular membrane potential by influx of sodium phosphate using fluorescent membrane potential dye kit BLUE (Molecular devices cat. R8034). For Npt2a activity measurements, CHO T-Rex hNpt2a cells were seeded into 1536 well microtiter plates (GREINER Bio-One cat. 782092) with 750 cells/well in 7 μL/w of complete medium (2% Tetracycline-free FBS, 2% Poly-D-Lysine) without selective agents+Doxycycline 0.5 μg/mL to induce Npt2a gene expression, and grown for 24 h at 37° C., 5% carbon dioxide.
On the day of experiment a 1×MPdye Loading Solution was freshly prepared by re-suspending 15 mg of Blue MPdye powder in 10 mL of NHE buffer sodium-free (140 mM N-Methyl-D-glucamine, 5.4 mM KCl, 1 mM CaCl2, 11 mM D(±)-Glucose water free, 1.2 mM MgCl2, 10 mM HEPES; pH 7.4 (adjusted with hydrochloric acid); sterile filtered). 5 μl medium was removed from plates by robotic manipulation, then 5 μL/well of sodium-free NHE buffer was added. After incubation for 2 min, this washing step was repeated once. Then, 5 μL/w of buffer was removed from plates and cells were incubated for 5 min at room temperature with 5 μL/w of MPdye Loading Solution (1× in Sodium-free NHE Buffer). Test compounds were added to the cells at final test concentrations between 50 μM and 1 nM (0.6 μL/well, final DMSO 0.6%, prepared in MPDye Loading Solution) and incubated for 5 min at room temperature.
Plates were analyzed with an in house CCD camera device using a λexc 510-545 nm/λem 565-625 nm filter. Fluorescence was detected for 15 sec (background measurement M1). Activity of Npt2a was triggered by addition of 2 μL/well of 30 mM Na+ and 1 mM phosphate (prepared in a mixture of NHE Buffer Na+ free and NHE Buffer 140 mM Na+). Fluorescence was followed for 2-3 min (depolarization measurement M2). Data was normalized to cell number and dye loading efficiency by calculating M2/M1. This quotient was plotted against test compound concentration. Graph Pad Prism or equivalent in house software was used to create sigmoidal dose-response curves (variable slope) and determine IC50 values.

| SMILES | IC50 [nM] |
| --- | --- |
| Cc1cc(C)n(-c2cc(Nc3nn(C)c(-c4ccc(F)cc4)c3OC(F)F)ncn2)n1 [Example 400, N-[4-(difluoromethoxy)-5-(4-fluorophenyl)-1-methyl-1H-pyrazol-3-yl]-6-(3,5-dimethyl-1H-pyrazol-1-yl)pyrimidin-4-amine] | 6 |
| CCc1c(-c2ccc(F)cc2)nn(C)c1Nc1cc(-n2nc(C)c3ncccc32)ncn1 [Example 229, N-[4-ethyl-3-(4-fluorophenyl)-1-methyl-1H-pyrazol-5-yl]-6-(3-methyl-1H-pyrazolo[4,3-b]pyridin-1-yl)pyrimidin-4-amine] | 350 |
| Cc1cc(C)n(-c2cc(Nc3c(C)nn(-c4ccc(F)cc4)c3C)ncn2)n1 [Example 78, 6-(3,5-dimethyl-1H-pyrazol-1-yl)-N-[1-(4-fluorophenyl)-3,5-dimethyl-1H-pyrazol-4-yl]pyrimidin-4-amine] | 247 |
| Cc1nn(-c2cc(Nc3c(C)c(-c4ccc(C(F)F)cc4)nn3CC3CC3)ncn2)c(C)c1C(O)C1CC1 (racemic) [Example 460, (±)-cyclopropyl {1-[6-({1-(cyclopropylmethyl)-3-[4-(difluoromethyl)phenyl]-4-methyl-1H-pyrazol-5-yl}amino)pyrimidin-4-yl]-3,5-dimethyl-1H-pyrazol-4-yl}methanol] | 98 |
| COCCn1nc(-c2ccc(C(F)F)cc2)c(C)c1Nc1cc(-n2nc(C)c(OC)c2C)ncn1 [Example 539, N-{3-[4-(difluoromethyl)phenyl]-1-(2-methoxyethyl)-4-methyl-1H-pyrazol-5-yl}-6-(4-methoxy-3,5-dimethyl-1H-pyrazol-1-yl)pyrimidin-4-amine] | 20 |
| CCc1c(-c2ccc(F)cc2)n[nH]c1Nc1cc(-n2nc(C)cc2C(F)F)ncn1 [Example 2, 6-[5-(difluoromethyl)-3-methyl-1H-pyrazol-1-yl]-N-[4-ethyl-3-(4-fluorophenyl)-1H-pyrazol-5-yl]pyrimidin-4-amine] | 12 |
| Cc1nn(-c2cc(Nc3c(C)c(-c4ccc(C(F)F)cc4)nn3CC3CC3)ncn2)c(C)c1C(O)C1CC1 (single isomer, unassigned) [Example 496, Cyclopropyl {1-[6-({1-(cyclopropylmethyl)-3-[4-(difluoromethyl)phenyl]-4-methyl-1H-pyrazol-5-yl}amino)pyrimidin-4-yl]-3,5-dimethyl-1H-pyrazol-4-yl}methanol] | 230 |
| Cc1c(-c2ccc(F)cc2)nn(CC2CC2)c1Nc1cc(-n2cc3c(n2)CN(C(=O)OC(C)(C)C)C3)ncn1 [Example 433, tert-butyl 2-(6-{[1-(cyclopropylmethyl)-3-(4-fluorophenyl)-4-methyl-1H-pyrazol-5-yl]amino}pyrimidin-4-yl)-2,6-dihydropyrrolo[3,4-c]pyrazole-5(4H)-carboxylate] | 1500 |
| Cc1nn(-c2cc(Nc3c(C)c(-c4ccc(F)cc4)nn3CC3CC3)ncn2)c(C)c1Br [Example 406, 6-(4-bromo-3,5-dimethyl-1H-pyrazol-1-yl)-N-[1-(cyclopropylmethyl)-3-(4-fluorophenyl)-4-methyl-1H-pyrazol-5-yl]pyrimidin-4-amine] | 3 |
| Cc1cc(C(F)F)n(-c2cc(Nc3c(C)c(-c4ccc(C#N)cc4)nn3CC3CC3)ncn2)n1 [Example 142, 4-[1-(cyclopropylmethyl)-5-{(6-[5-(difluoromethyl)-3-methyl-1H-pyrazol-1-yl]pyrimidin-4-yl}amino)-4-methyl-1H-pyrazol-3-yl]benzonitrile] | 3 |
| Cc1cc(C)n(-c2cc(Nc3[nH]nc(-c4ccccc4)c3C)ncn2)n1 [Example 10, 6-(3,5-dimethyl-1H-pyrazol-1-yl)-N-(4-methyl-3-phenyl-1H-pyrazol-5-yl)pyrimidin-4-amine] | 33.7 |
| Cc1nn(-c2cc(Nc3nn(C)c(-c4ccc(F)cc4)c3Cl)ncn2)c(C(C)(C)O)c1Cl [Example 304, 2-[4-chloro-1-(6-{[4-chloro-5-(4-fluorophenyl)-1-methyl-1H-pyrazol-3-yl]amino}pyrimidin-4-yl)-3-methyl-1H-pyrazol-5-yl]propan-2-ol] | 6 |
| COc1c(-c2ccc(F)cc2)nn(C)c1Nc1cc(-n2nc(C)cc2C)ncn1 [Example 254, 6-(3,5-dimethyl-1H-pyrazol-1-yl)-N-[3-(4-fluorophenyl)-4-methoxy-1-methyl-1H-pyrazol-5-yl]pyrimidin-4-amine] | 150 |
| Cc1nn(-c2cc(Nc3nn(C)c(-c4ccc(F)cc4)c3C)ncn2)c(C(C)(C)O)c1Cl [Example 261, 2-[4-chloro-1-(6-{[5-(4-fluorophenyl)-1,4-dimethyl-1H-pyrazol-3-yl]amino}pyrimidin-4-yl)-3-methyl-1H-pyrazol-5-yl]propan-2-ol] | 20 |
| CCc1c(Nc2cc(-n3nc(C)c(C(=O)N4CCC4)c3C)ncn2)nn(C)c1-c1ccc(F)cc1 [Example 123, azetidin-1-yl[1-(6-{[4-ethyl-5-(4-fluorophenyl)-1-methyl-1H-pyrazol-3-yl]amino}pyrimidin-4-yl)-3,5-dimethyl-1H-pyrazol-4-yl]methanone] | 395 |
| Cc1nn(-c2cc(Nc3nn(C)c(-c4ccccc4)c3C)ncn2)c(C)c1Cl [Example 84, 6-(4-chloro-3,5-dimethyl-1H-pyrazol-yl)-N-(1,4-dimethyl-5-phenyl-1H-pyrazol-3-yl)pyrimidin-4-amine] | 75.5 |
| Cc1nn(-c2cc(Nc3c(C)c(-c4ccc(C#N)cc4)nn3CCC3CC3)ncn2)c(C)c1Cl [Example 221, 4-[5-{[6-(4-chloro-3,5-dimethyl-1H-pyrazol-1-yl)pyrimidin-4-yl]amino}-1-(2-cyclopropylethyl)-4-methyl-1H-pyrazol-3-yl]benzonitrile] | 6 |
| CCOC(=O)c1c(C)nn(-c2cc(Nc3n[nH]c(-c4ccc(F)cc4)c3CC)ncn2)c1C [Example 4, ethyl 1-(6-{[4-ethyl-5-(4-fluorophenyl)-1H-pyrazol-3-yl]amino}pyrimidin-4-yl)-3,5-dimethyl-1H-pyrazole-4-carboxylate] | 28.3 |
| COc1c(C)nn(-c2cc(Nc3c(C)c(-c4ccc(C(F)(F)F)nc4)nn3CC3CC3)ncn2)c1C [Example 535, N-{1-(cyclopropylmethyl)-4-methyl-3-[6-(trifluoromethyl)pyridin-3-yl]-1H-pyrazol-5-yl}-6-(4-methoxy-3,5-dimethyl-1H-pyrazol-1-yl)pyrimidin-4-amine] | 26 |
| Cc1nn(-c2cc(Nc3c(C)c(-c4ccc(C(F)(F)F)cc4)nn3CC3CC3)ncn2)c(C(C)(C)O)c1Cl [Example 294, 2-{4-chloro-1-[6-({1-(cyclopropylmethyl)-4-methyl-3-[4-(trifluoromethyl)phenyl]-1H-pyrazol-5-yl}amino)pyrimidin-4-yl]-3-methyl-1H-pyrazol-5-yl}propan-2-ol] | 1400 |
| COc1c(Nc2cc(-n3nc(C)c4ccncc43)ncn2)n[nH]c1-c1ccc(C#N)cc1 [Example 214, 4-(4-methoxy-3-{[6-(3-methyl-1H-pyrazolo[3,4-c]pyridin-1-yl)pyrimidin-4-yl]amino}-1H-pyrazol-5-yl)benzonitrile] | 86 |
